Assay results as given in the supplement of paper PMC13380429.

Legend:
Settings in all cases: 72 h
HepG2 [1] = assay: drug sensitivity score (DSS) for viability; higher = more toxic; extreme values may be limits of the assay
Vero E6 [2] = assay: as above
Calu-3 [3] = assay: as above
U2OS [4] = assay: as above
Caco-2 [5] = assay: as above
HepG2 [6] = assay: relative viability EC50 (midpoint between 100% and the lowest measured viability); higher = less toxic
Vero E6 [7] = assay: as above
Calu-3 [8] = assay: as above
U2OS [9] = assay: as above
Caco-2 [10] = assay: as above
HepG2 [11] = assay: cell viability relative to DMSO; higher = less toxic
Vero E6 [12] = assay: as above
Calu-3 [13] = assay: as above
U2OS [14] = assay: as above
Caco-2 [15] = assay: as above

| SMILES | drug sensitivity score (HepG2 [1]) | drug sensitivity score (Vero E6 [2]) | drug sensitivity score (Calu-3 [3]) | drug sensitivity score (U2OS [4]) | drug sensitivity score (Caco-2 [5]) | relative viability EC50 (HepG2 [6]) [µM] | relative viability EC50 (Vero E6 [7]) [µM] | relative viability EC50 (Calu-3 [8]) [µM] | relative viability EC50 (U2OS [9]) [µM] | relative viability EC50 (Caco-2 [10]) [µM] | cell viability (HepG2 [11]; 1 nM) [%] | cell viability (HepG2 [11]; 10 nM) [%] | cell viability (HepG2 [11]; 100 nM) [%] | cell viability (HepG2 [11]; 1000 nM) [%] | cell viability (HepG2 [11]; 10000 nM) [%] | cell viability (Vero E6 [12]; 1 nM) [%] | cell viability (Vero E6 [12]; 10 nM) [%] | cell viability (Vero E6 [12]; 100 nM) [%] | cell viability (Vero E6 [12]; 1000 nM) [%] | cell viability (Vero E6 [12]; 10000 nM) [%] | cell viability (Calu-3 [13]; 1 nM) [%] | cell viability (Calu-3 [13]; 10 nM) [%] | cell viability (Calu-3 [13]; 100 nM) [%] | cell viability (Calu-3 [13]; 1000 nM) [%] | cell viability (Calu-3 [13]; 10000 nM) [%] | cell viability (U2OS [14]; 1 nM) [%] | cell viability (U2OS [14]; 10 nM) [%] | cell viability (U2OS [14]; 100 nM) [%] | cell viability (U2OS [14]; 1000 nM) [%] | cell viability (U2OS [14]; 10000 nM) [%] | cell viability (Caco-2 [15]; 1 nM) [%] | cell viability (Caco-2 [15]; 10 nM) [%] | cell viability (Caco-2 [15]; 100 nM) [%] | cell viability (Caco-2 [15]; 1000 nM) [%] | cell viability (Caco-2 [15]; 10000 nM) [%] |
| --- | --- | --- | --- | --- | --- | --- | --- | --- | --- | --- | --- | --- | --- | --- | --- | --- | --- | --- | --- | --- | --- | --- | --- | --- | --- | --- | --- | --- | --- | --- | --- | --- | --- | --- | --- |
| CC(C)[C@@H]1C(=O)N(S(C)(=O)=O)[C@@H]2CCN(C(=O)/C=C/CN3CCCCC3)[C@H]21 | 0.1 | 0 | 0 | 0 | 0 | > 10 | > 10 | > 10 | > 10 | > 10 | 92.2 | 92.6 | 104 | 104 | 85.3 | 97.2 | 102 | 93.4 | 98.6 | 91.4 | 95.9 | 95.4 | 102 | 103 | 100 | 101 | 98.8 | 103 | 99.1 | 101 | 110 | 94.3 | 94.4 | 97.6 | 94.4 |
| CC1(C)CCC(C)(C)c2cc(C3(c4ccc5cc(C(=O)O)ccc5c4)SCCS3)ccc21 | 0 | 0 | 0 | 0 | 0 | > 10 | > 10 | > 10 | > 10 | > 10 | 101 | 85.2 | 96.3 | 106 | 102 | 95.8 | 98.7 | 96.6 | 98 | 100 | 104 | 106 | 89.4 | 113 | 98.8 | 97.9 | 104 | 94.4 | 93.5 | 98.6 | 106 | 104 | 93.9 | 94.7 | 94.6 |
| CC1(C)Oc2ccc(C#N)cc2[C@H](N(Cc2ncc[nH]2)c2ccc(Cl)cc2)[C@H]1O | 0 | 0 | 0 | 0 | 0 | > 10 | > 10 | > 10 | > 10 | > 10 | 107 | 109 | 98 | 103 | 114 | 93.8 | 93 | 95.2 | 97.2 | 102 | 103 | 104 | 105 | 102 | 99.2 | 101 | 103 | 103 | 103 | 96.8 | 106 | 101 | 98 | 103 | 89.4 |
| CCN(CC)CCOc1ccc(Nc2ncc3cc(-c4c(Cl)cccc4Cl)c(=O)n(C)c3n2)cc1 | 18.4 | 15.3 | 12.5 | 17.5 | 13.5 | 0.266 | 0.465 | 0.712 | 0.329 | 0.532 | 111 | 97.9 | 82.2 | 11.3 | 0.1 | 95 | 95.3 | 88.9 | 26.6 | -0.1 | 98.8 | 99.5 | 80.3 | 49 | 2.3 | 99.1 | 104 | 90.8 | 10.4 | -0.1 | 102 | 102 | 80.7 | 41.7 | 5.4 |
| CN(C)Cc1cccc(N/C(=C2\C(=O)Nc3cc(C(N)=O)ccc32)c2ccccc2)c1 | 0 | 0 | 0 | 0 | 0 | > 10 | > 10 | > 10 | > 10 | > 10 | 106 | 105 | 89.4 | 112 | 112 | 98.3 | 102 | 95.6 | 96.2 | 102 | 103 | 92.7 | 96.3 | 95.6 | 96 | 96.6 | 94.8 | 99 | 93.5 | 101 | 102 | 99.7 | 100 | 88.3 | 107 |
| COC1(C[S@@+]([O-])c2ccccc2)CCN(CCc2c[nH]c3ccc(F)cc23)CC1 | 0 | 0 | 0 | 0 | 0 | > 10 | > 10 | > 10 | > 10 | > 10 | 95.9 | 88.4 | 86.6 | 96.6 | 84.1 | 103 | 101 | 92.5 | 102 | 93.8 | 100 | 94.6 | 99 | 101 | 100 | 96.2 | 95.9 | 100 | 96.5 | 99.9 | 93.6 | 99.1 | 87.1 | 102 | 90.3 |
| COc1ccc2cc(OCC3(C(=O)O)CN(C(=O)c4ccc(F)cc4)C3)ccc2c1 | 0 | 0 | 0 | 0 | 0 | > 10 | > 10 | > 10 | > 10 | > 10 | 106 | 88.7 | 100 | 93 | 96.9 | 99.2 | 96.9 | 99.5 | 96.2 | 95 | 106 | 95.4 | 104 | 110 | 102 | 94.3 | 108 | 96.1 | 97.9 | 95.8 | 93.5 | 102 | 94.8 | 93.8 | 99 |
| N[C@@H](CCNCc1ccc(Cl)cc1)C(=O)N1CCCCC1 | 0 | 0 | 0 | 0 | 0 | > 10 | > 10 | > 10 | > 10 | > 10 | 101 | 109 | 102 | 112 | 95.9 | 94.1 | 99.3 | 91 | 100 | 103 | 108 | 98.1 | 101 | 101 | 93.2 | 98.9 | 99 | 104 | 99.5 | 101 | 95.9 | 94.3 | 101 | 96.6 | 98.4 |
| O=C(N[C@H]1CN2CCC1CC2)c1ccc(Cl)cc1 | 0 | 0 | 0 | 0 | 0 | > 10 | > 10 | > 10 | > 10 | > 10 | 97.2 | 92.2 | 93.7 | 102 | 94.3 | 96.7 | 94.7 | 95.4 | 92.7 | 92.5 | 99.6 | 88.7 | 99.6 | 99.8 | 95.6 | 102 | 97.4 | 99.9 | 95.7 | 101 | 98.5 | 97.8 | 103 | 98.3 | 92.6 |
| O=C(Nc1cnccc1Cl)N1CCN(Cc2ccc3c(c2)OC(F)(F)O3)CC1 | 4.7 | 0 | 0 | 0 | 1 | 2.06 | > 10 | > 10 | > 10 | > 10 | 95.6 | 100 | 100 | 91.6 | 39.3 | 108 | 103 | 103 | 100 | 92.4 | 92.4 | 100 | 95.2 | 99 | 92.8 | 99.8 | 97.5 | 99.1 | 98.8 | 94 | 97.7 | 101 | 94 | 90.3 | 81 |
| O=C(O)c1ccc(-c2c[nH]c3ncc(-c4ccccc4)cc23)cc1C1CCCC1 | 1.1 | 0 | 0 | 0 | 0 | > 10 | > 10 | > 10 | > 10 | > 10 | 103 | 100 | 107 | 89.6 | 84.2 | 109 | 106 | 104 | 97 | 101 | 98.8 | 92.9 | 97.6 | 107 | 107 | 96.4 | 94.9 | 90.4 | 97.3 | 85.8 | 92.8 | 107 | 101 | 105 | 93.5 |
| Oc1cc2c(c(Cl)c1O)CCNCC2c1ccccc1 (stereo not given) | 0.1 | 0 | 0 | 0 | 0 | > 10 | > 10 | > 10 | > 10 | > 10 | 93.2 | 100 | 100 | 103 | 86.8 | 104 | 106 | 103 | 104 | 98.6 | 95.1 | 106 | 97.7 | 106 | 91.1 | 100 | 97 | 102 | 97.8 | 104 | 99.2 | 94.9 | 85.4 | 90.9 | 95.5 |
| Oc1ccc2[nH]cc(C3=CCNCC3)c2n1 | 0 | 0 | 0 | 0 | 0 | > 10 | > 10 | > 10 | > 10 | > 10 | 107 | 106 | 97.6 | 89.1 | 100 | 105 | 91.2 | 99.4 | 97 | 102 | 100 | 92.6 | 105 | 104 | 102 | 94.8 | 100 | 97.1 | 106 | 105 | 79.9 | 95.6 | 97 | 98.1 | 100 |
